Laboratory results taken from PubChem BioAssay AID1996.
≈ marks a conversion by molar mass, not a printed value.

Conditions: buffer; pH 7.4; 200.0 µM

First: CCOC(=O)C1C(CC)NC(=S)NC1(C)O (stereo not drawn)
Second: Cc1ccc(/C=C/C(=O)N2CCCC(C(N)=O)C2)o1 (stereo not drawn)
The solubility kinetic of the first is lower: 35 µg/mL (≈ 142 µM) for the first, greater than 39.3 µg/mL for the second.

Going from COc1ccccc1/C=C/c1nc2ccc(OC(C)=O)cc2c(=O)o1 to COc1ccccc1NC(=O)c1ccc([N+](=O)[O-])o1, the solubility kinetic rises from less than 0.7 µg/mL to 36.8 µg/mL (≈ 140 µM).

Going from O=C(O)c1cc2c(cc1NC(=O)C1CCCC1)OCCO2 to N#C/C(=C\c1ccc2c(c1)OCCO2)C(=O)Nc1nccs1, the solubility kinetic falls from greater than 43.7 µg/mL to 28.8 µg/mL (≈ 91.9 µM).

Compared with Cc1coc2cc3oc(=O)c(CCC(=O)NCc4ccccn4)c(C)c3cc12, CCC(C(=O)Nc1cc(C)cc(C)n1)c1ccccc1 (stereo not drawn) is 12-fold higher in solubility kinetic: 3.4 µg/mL (≈ 9.03 µM) for the first, 39.3 µg/mL (≈ 146 µM) for the second.

C=CCOc1ccc(/C=C2\SC(N)=NC2=O)cc1OC and COc1ccc(Cl)cc1NC(=O)COC(=O)c1cc(C)oc1C are within 1.5-fold of each other in solubility kinetic: 5.7 µg/mL (≈ 19.6 µM) for the first, 4.2 µg/mL (≈ 12.4 µM) for the second.

Compared with O=C1c2ccccc2-c2nc3ccccc3cc21, Cc1onc(-c2ccccc2)c1C(=O)NC(C)c1ccccc1 (stereo not drawn) is higher in solubility kinetic: less than 0.5 µg/mL for the first, 4.9 µg/mL (≈ 16 µM) for the second.

Compared with CC1(C)CC(=O)c2sc(NS(=O)(=O)c3ccccc3)nc2C1, O=S(=O)(NC1C2CC3CC(C2)CC1C3)c1ccccc1 (stereo not drawn) is 2.1-fold lower in solubility kinetic: 48.9 µg/mL (≈ 145 µM) for the first, 23.4 µg/mL (≈ 80.3 µM) for the second.

First: CCc1ccccc1NC(=S)N1CCN(c2cccc(OC)c2)CC1
Second: O=C(Nc1ccccc1N1CCCC1)c1cccc(F)c1
The solubility kinetic of the first is lower: 2.2 µg/mL (≈ 6.19 µM) for the first, greater than 42.6 µg/mL for the second.

Cc1ccc(OS(=O)(=O)c2cn(C)c(=O)n(C)c2=O)cc1C and Cn1c(=O)c2c(ncn2CC(=O)Nc2cc(S(=O)(=O)N3CCCCC3)ccc2O)n(C)c1=O cannot be ordered by solubility kinetic: greater than 48.7 µg/mL for the first, greater than 71.5 µg/mL for the second.

First: Fc1ccccc1CN1CCN(c2ncccn2)CC1
Second: O=S(=O)(c1ccc(F)cc1)N1CCN(CCc2ccccc2)CC1
The solubility kinetic of the first is 7.3-fold higher: 30.1 µg/mL (≈ 111 µM) for the first, 4.1 µg/mL (≈ 11.8 µM) for the second.

Compared with COc1ccc(OC)c(NC(=O)NC2CCCCCCC2)c1, O=C(NC1CCCC1)C1CC(O)CN1C(=O)Nc1ccccc1 (stereo not drawn) is higher in solubility kinetic: 2.2 µg/mL (≈ 7.18 µM) for the first, greater than 47.6 µg/mL for the second.

Compared with CCOc1ccccc1NC(=O)NC1CCCc2ccccc21 (stereo not drawn), Cc1ccccc1NC(=O)NCC1CCN(C(=O)OC(C)(C)C)CC1 is higher in solubility kinetic: 0.5 µg/mL (≈ 1.61 µM) for the first, greater than 52.1 µg/mL for the second.

Compared with Cc1ccnc(NC(=O)COC(=O)C23CC4CC(CC(C4)C2)C3)n1, CN(C(=O)COC(=O)c1ccc(Cl)cc1N)C1CCCCC1 is 12-fold lower in solubility kinetic: 8.7 µg/mL (≈ 26.4 µM) for the first, 0.7 µg/mL (≈ 2.16 µM) for the second.

Compared with NS(=O)(=O)c1ccc(CCNC(=O)c2ccc3ccccc3n2)cc1, CC(N)Cc1c[nH]c2c1ccc1ccccc12.Cl (stereo not drawn) is 3.2-fold higher in solubility kinetic: 10.6 µg/mL (≈ 29.8 µM) for the first, 33.9 µg/mL for the second.

First: CNC(=S)Nc1cc(C(=O)N2CCCC2)ccc1N1CCCC1
Second: COC(=O)c1ccc(C(=O)OC)c(NC(=S)N2CCCC2)c1
The solubility kinetic of the first is higher: greater than 49.9 µg/mL for the first, 9.6 µg/mL (≈ 29.8 µM) for the second.

Going from NC(=O)CCS(=O)(=O)c1ccc(Cl)cc1 to O=C(COc1ccc(Cl)cc1)Nc1ccc2oc(=O)ccc2c1, the solubility kinetic falls from greater than 37.2 µg/mL to less than 0.7 µg/mL.

Going from CC(=O)c1ccc(S(=O)(=O)Nc2ccc(S(=O)(=O)N3CCCCC3)cc2)cc1 to CC(=O)c1ccc(NC(=S)Nc2ccc3[nH]c(=O)[nH]c3c2)cc1, the solubility kinetic falls from greater than 63.4 µg/mL to 5.6 µg/mL (≈ 17.2 µM).

COc1ccc(N(CC(=O)NC2CCS(=O)(=O)C2)S(=O)(=O)c2cc(C)ccc2C)cc1 (stereo not drawn) and CC(=O)N1CCC(C(=O)NCCOc2ccc(C)cc2)CC1 cannot be ordered by solubility kinetic: 66.3 µg/mL (≈ 142 µM) for the first, greater than 45.7 µg/mL for the second.

First: Cc1ccc2c(CN(C)Cc3ccc(Cl)cc3)cc(=O)oc2c1
Second: CC(CCc1ccc(O)cc1)NCc1ccc(Cl)cc1Cl (stereo not drawn)
The solubility kinetic of the first is lower: 1.9 µg/mL (≈ 5.8 µM) for the first, greater than 48.6 µg/mL for the second.

Going from CSc1sc(-c2ccnc(=S)[nH]2)c(-c2ccccc2)c1C#N to CNc1nc(=S)[nH]c2ccccc12, the solubility kinetic rises from 8.2 µg/mL (≈ 24 µM) to greater than 28.7 µg/mL.

Going from Cc1ccccc1NC(=O)CCl to Cc1cc(=O)[nH]c(SCC(=O)Nc2ccccc2[N+](=O)[O-])n1, the solubility kinetic rises from 26.2 µg/mL (≈ 143 µM) to greater than 48 µg/mL.

First: O=C(COC(=O)COc1ccc(Br)cc1)NCC1CCCO1 (stereo not drawn)
Second: CCOc1ccc(N/C(N)=N/c2nc(C)c(C)c(=O)[nH]2)cc1
The solubility kinetic of the first is higher: greater than 55.8 µg/mL for the first, 2.3 µg/mL (≈ 7.63 µM) for the second.

O=C(NCC(O)c1ccccc1)c1cccs1 (stereo not drawn) and Cc1nc(C(=O)NCC(=O)c2ccccc2)c(C(F)(F)F)o1 cannot be ordered by solubility kinetic: greater than 37.1 µg/mL for the first, greater than 46.8 µg/mL for the second.

Compared with O=C(CN1C(=O)C2CC=CCC2C1=O)Nc1nc(-c2ccc(F)c(F)c2)cs1 (stereo not drawn), N#Cc1ccc(C(=O)CSc2n[nH]c(=O)n2-c2cccnc2)cc1 is higher in solubility kinetic: 4.8 µg/mL (≈ 11.9 µM) for the first, greater than 50.6 µg/mL for the second.

OC1(c2ccc(F)cc2)CCN(Cc2cccnc2)CC1 and O=S(=O)(c1ccccc1)N1CCN(CCO)CC1 cannot be ordered by solubility kinetic: greater than 43 µg/mL for the first, greater than 40.6 µg/mL for the second.

Compared with O=[N+]([O-])c1cc([N+](=O)[O-])c2cc(-c3cccnc3)[nH]c2c1, Cc1cc(Nc2cccc([N+](=O)[O-])c2)c2cccc(C)c2n1.Cl is higher in solubility kinetic: less than 0.2 µg/mL for the first, 5.5 µg/mL for the second.

COc1cc(/C=C/C(=O)N2CCc3ccccc3C2)cc(OC)c1OC and COc1ccc(Cl)cc1C(=O)NCCN1CCOCC1 cannot be ordered by solubility kinetic: 46.6 µg/mL (≈ 132 µM) for the first, greater than 44.8 µg/mL for the second.

C/C(Cn1ncc(N2CCOCC2)c(Cl)c1=O)=N\O and O=S(=O)(c1ccc2oc(=S)[nH]c2c1)N1CCOCC1 cannot be ordered by solubility kinetic: greater than 43 µg/mL for the first, greater than 45.1 µg/mL for the second.

First: O=[N+]([O-])c1cccc(CSc2ncnc3ccccc23)c1
Second: Cc1ccc(C2C(C#N)=C(N)Oc3cc(N)ccc32)cc1 (stereo not drawn)
The solubility kinetic of the first is 2.2-fold lower: 2 µg/mL (≈ 6.73 µM) for the first, 4.4 µg/mL (≈ 15.9 µM) for the second.
